Data: article PMC8745601 (International Journal of Molecular Sciences, 2021)
Read-outs that look alike come from different tables or passages of the source.

Tests used:
[1] = target: T1, OCT1 (Homo sapiens, UniProt O15245); details: OCT1 affinity to doxorubicin; cited from earlier work
T1 sequence (O15245 1-554): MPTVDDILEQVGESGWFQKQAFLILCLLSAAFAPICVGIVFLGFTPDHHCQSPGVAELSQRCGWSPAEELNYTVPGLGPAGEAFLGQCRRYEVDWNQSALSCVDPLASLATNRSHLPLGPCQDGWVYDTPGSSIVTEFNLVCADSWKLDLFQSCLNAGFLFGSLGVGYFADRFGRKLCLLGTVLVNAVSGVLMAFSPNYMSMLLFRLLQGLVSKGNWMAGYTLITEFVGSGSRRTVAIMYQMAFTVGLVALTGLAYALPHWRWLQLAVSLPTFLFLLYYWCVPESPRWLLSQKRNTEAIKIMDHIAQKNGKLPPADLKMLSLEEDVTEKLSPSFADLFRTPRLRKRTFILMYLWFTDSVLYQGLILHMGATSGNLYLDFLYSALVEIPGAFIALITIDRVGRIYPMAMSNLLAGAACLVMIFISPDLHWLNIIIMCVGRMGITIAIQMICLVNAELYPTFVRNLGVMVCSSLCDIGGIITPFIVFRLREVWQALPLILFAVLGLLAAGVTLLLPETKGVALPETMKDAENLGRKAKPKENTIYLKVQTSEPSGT

[2] = target: T1, OCT1; details: MDCKII-OCT1; doxorubicin 0–100 µmol/L; 3 min; mean ± SD
Experimental: (§2) Cellular uptake studies: For all transport studies, cells were seeded in 24-well plates and incubated in a full growth medium at an initial density of 200,000 cells/well for 3 days. Before starting each transport experiment, cells were washed with a pre-warmed (37 °C) incubation buffer [64]. […] Protein concentration of whole cell lysate was determined to quantify cell density after each experiment using the BCA assay according to the manufacturer’s instructions (Pierce, Rockford, IL, USA).
(§3) Statistical evaluation: All experiments were performed at least three times unless otherwise noted. The OATP1A2*1–*3 and OCT1-3 net uptake was obtained by subtracting the uptake into wild-type cells from that of the transporter-transfected cells. Km and Vmax were assessed using Prism 5.01 (GraphPad Software, San Diego, CA, USA). The differences in the doxorubcin uptake in OATP1A2*1–*3 and in OCT1-3 transfected cells were adjusted to the membranous transporter protein levels in the whole cell lysate. Km and Vmax are presented as arithmetic means ± standard deviation.

[3] = test system: OATP1A2; details: transiently transfected HeLa cells, ref 22 (Lee et al.); cited from earlier work
[4] = target: T1, OCT1; test: in vitro; details: mdck
Experimental: as §2, §3

[5] = target: T2, OCT3 (Homo sapiens, UniProt O75751); test: Doxorubicin uptake into MDCKII cells stably expressing OCT3
T2 sequence (O75751 1-556): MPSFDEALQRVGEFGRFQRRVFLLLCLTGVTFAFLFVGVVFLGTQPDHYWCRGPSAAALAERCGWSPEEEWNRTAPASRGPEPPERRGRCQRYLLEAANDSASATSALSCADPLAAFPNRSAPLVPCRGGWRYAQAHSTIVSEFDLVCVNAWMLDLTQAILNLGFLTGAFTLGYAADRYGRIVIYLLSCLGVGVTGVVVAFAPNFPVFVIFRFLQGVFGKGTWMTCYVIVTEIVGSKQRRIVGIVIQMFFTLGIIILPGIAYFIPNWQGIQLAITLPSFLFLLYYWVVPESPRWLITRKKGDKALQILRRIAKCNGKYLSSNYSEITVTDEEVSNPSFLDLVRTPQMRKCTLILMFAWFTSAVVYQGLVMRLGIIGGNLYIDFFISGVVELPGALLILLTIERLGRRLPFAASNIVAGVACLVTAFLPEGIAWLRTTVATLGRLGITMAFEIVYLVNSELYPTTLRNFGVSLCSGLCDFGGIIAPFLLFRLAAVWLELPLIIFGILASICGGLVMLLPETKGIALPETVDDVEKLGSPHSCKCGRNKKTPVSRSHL
Experimental: as §2, §3

[6] = test system: OATP1A2*2/*3; test: Doxorubicin uptake clearance by OATP1A2 genetic variants versus wild type; format: cell-based, human; details: OATP1A2*2 and *3 versus OATP1A2*1
Experimental: as §2
Protein abundance of OATP1A2*1–*3 and OCT1–3 were measured by mass spectrometry-based targeted proteomics using a validated LC-MS/MS method as recently described [65].
Statistical evaluation: All experiments were performed at least three times unless otherwise noted. The OATP1A2*1–*3 and OCT1-3 net uptake was obtained by subtracting the uptake into wild-type cells from that of the transporter-transfected cells. Km and Vmax were assessed using Prism 5.01 (GraphPad Software, San Diego, CA, USA). […] Km and Vmax are presented as arithmetic means ± standard deviation.

[7] = test system: breast cancer cell lines MCF-7, MDA-MB-231, ZR-75-1; test: Resazurin cell viability assay in breast cancer cell lines; details: 100 µmol/L doxorubicin, 72 h, versus DMSO
Experimental: (§1) Resazurin-Assay: To determine cell viability, cells were seeded at a density of 10,000 cells/well in 96-well multiplates. […] Afterward, 100 µL from each well was placed in a cavity of a 96-well plate, and the fluorescence was determined on a microplate reader (TECAN infinite M200, Tecan GmbH, Crailsheim, Germany) at an excitation wavelength of 530 nm and an emission wavelength of 590 nm.

[8] = during chemotherapy, no reference given, cited from earlier work
[9] = pH 7.4; cited from earlier work
[10] = test system: transfected cell lines and tumorous cell lines; test: Short-term cytotoxicity check (Presto Blue cell viability assay); format: cell-based; details: concentrations tested (100 µmol/L), data not shown
[11] = cumulative dose 450–600 mg/m^2; cited from earlier work
[12] = test system: OCT6; details: OCT6 affinity to doxorubicin; cited from earlier work
[13] = test system: HEK293 cells expressing OATP1A2*1, *2, *3; details: OATP1A2 transfected cells; 100 µmol/L doxorubicin, 72 h; versus DMSO
Experimental: as §1

[14] = target: T3, OCT2 (Homo sapiens, UniProt O15244); details: MDCKII-OCT2
T3 sequence (O15244 1-555): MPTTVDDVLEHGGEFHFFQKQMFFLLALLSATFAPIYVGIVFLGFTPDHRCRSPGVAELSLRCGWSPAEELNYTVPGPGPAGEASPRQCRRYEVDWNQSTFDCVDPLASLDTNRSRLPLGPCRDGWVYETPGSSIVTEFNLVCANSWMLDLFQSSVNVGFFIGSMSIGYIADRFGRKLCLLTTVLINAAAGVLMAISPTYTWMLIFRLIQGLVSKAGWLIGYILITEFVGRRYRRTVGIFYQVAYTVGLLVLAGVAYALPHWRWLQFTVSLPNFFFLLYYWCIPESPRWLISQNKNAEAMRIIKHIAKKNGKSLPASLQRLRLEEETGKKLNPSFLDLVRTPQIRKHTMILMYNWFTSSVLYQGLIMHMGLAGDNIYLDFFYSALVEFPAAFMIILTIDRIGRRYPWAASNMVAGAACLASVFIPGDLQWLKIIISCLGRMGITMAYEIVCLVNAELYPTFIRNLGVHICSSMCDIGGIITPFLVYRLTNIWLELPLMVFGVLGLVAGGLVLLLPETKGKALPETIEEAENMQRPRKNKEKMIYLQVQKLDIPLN
Experimental: as §2, §3

In the case of COc1cccc2c1C(=O)c1c(O)c3c(c(O)c1C2=O)C[C@@](O)(C(=O)CO)C[C@@H]3O[C@H]1C[C@H](N)[C@H](O)[C@H](C)O1 [doxorubicin, Doxorubicin], the Km [1] is given as ~5 µM, the Vmax [2] is given as 19.4 ± 3.78 pmol/mg/min and the Km [3] is given as 31.7 µM. It also gave a microsomal CLint at 3 min [4] of 4.16 ± 1.1 µL/min/mg, a Vmax ([5]; MDCKII-OCT3, doxorubicin 0–100 µmol/L, 3 min, mean ± SD) of 12.9 ± 3.60 pmol/mg/min and a microsomal CLint at 3 min ([5]; human, mdck) of 0.99 ± 0.33 µL/min/mg. The “diminished cellular uptake clearance by the genetic variants” value [6] was 51–70%, the “cell viability in presence of doxorubicin” value [7] was “significantly reduced” and the “plasma concentrations of doxorubicin” value ([8]; conversion of 600 ng/mL) was ~ 1 µmol/L. The “plasma concentrations of doxorubicin” value [8] was “up to 600 ng/mL”, the “present as cationic moiety” value [9] was 89% and the “cytotoxic effects within one hour” value [10] was “no cytotoxic effects”. The “risk of congestive heart failure” value [11] was 3–18%, the Km [12] was ~5 µM and the “cell viability in presence of doxorubicin” value [13] was “significantly reduced”. For the same compound, the Vmax ([14]; doxorubicin 0–100 µmol/L, 3 min, mean ± SD) was 37.8 ± 11.1 pmol/mg/min and the “saturation of concentration-dependent OCT2-mediated uptake” value ([14]; incubation time 3 min, up to 100 µmol/L) was “not saturated”.
